Read-outs that look alike come from different tables or passages of the source.
Tests used:
[1] = test system: mammary adenocarcinoma MA 13/C; conditions: for % bwl (nadir): mouse, in vivo, iv; for HNTD (DT), total dose / HNTD (highest non-toxic dose), per dose: single agent IV, days 15, 21
Protocol: A product is considered to be active if log10 cell kill is greater than or equal to 0.7. A product is considered to be very active if log10 cell kill is greater than 2.8.
The animals subjected to the experiment, generally mice, are subcutaneously grafted bilaterally with 30 to 60 mg of a tumor fragment on day zero. The animals bearing tumors are mixed before being subjected to the various treatments and controls. In the case of treatment of advanced tumors, tumors are allowed to develop to the desired size, animals having insufficiently developed tumors being eliminated. The selected animals are distributed at random to undergo the treatments and controls. […] Chemotherapy generally begins from 3 to 22 days after grafting, depending on the type of tumor. The animals are observed every day. The different animal groups are weighed 3 or 4 times a week until the maximum weight loss is attained, and the groups are then weighed at least once a week until the end of the trial.
The tumors are measured 2 or 3 times a week until the tumor reaches approximately 2 g, or until the animal dies, if this occurs before the tumor reaches 2 g. The animals are autopsied after death.

[2] = test system: murine mammary adenocarcinoma MA13/C; conditions: for highest non-toxic total dose, component alone: single agent IV, Taxotere d14, 23, flavopiridol d14-17, 20-23
[3] = Flavo alone IV at HNTD 2.9 mg/kg/dose (total 23.2 mg/kg)
[4] = Flavopiridol alone IV 1.75 mg/kg/dose d14-17, 20-23 (total 14)
[5] = Flavopiridol alone IV 2.9 mg/kg/dose d14-17, 20-23 (total 23.2)
[6] = Flavopiridol alone IV 4.8 mg/kg/dose d14-17, 20-23 (total 38.4)
[7] = Taxotere alone IV 48.1 mg/kg/dose d14, 23 (total 96.8)

CN1CC[C@H](c2c(O)cc(O)c3c(=O)cc(-c4ccccc4Cl)oc23)[C@H](O)C1 [Flavopiridol, cis-5,7-dihydroxy-2-(2-chlorophenyl)-8-[4-(3-hydroxy-1-methyl)-piperidinyl]-1-benzopyran-4-one]
lck (log10 cell kill) ([1]; Flavopiridol alone IV 6.0 mg/kg days 15, 21 (total 12.0)): 0.4 | CR (complete response) ([1]; Flavopiridol alone IV 6.0 mg/kg days 15, 21 (total 12.0), 6 mg/kg): 0/5 CR | CR (complete response) ([1]; Flavopiridol alone IV 6.0 mg/kg days 15, 21 (total 12.0), listed as flavopiridol, 6 mg/kg): no compete responses in the 5 mice tested | % bwl (nadir) ([1]; 6 mg/kg): 6 (16) % | HNTD (DT), total dose [1]: (12.0) mg/kg | HNTD (highest non-toxic dose), per dose [1]: 6.0 mg/kg | activity rating [2, 3]: inactive | log cell kill net [2, 3]: −0.4 | highest non-toxic dose (HNTD), per dose ([2]; Flavo alone IV once a day, day 14 to 17 and 20-23): 2.9 mg/kg/dose | CR (complete response) [2, 4]: 0/6 | lck Gross [2, 4]: 0.0 | % bwl (nadir) ([2]; Flavopiridol alone IV 1.75 mg/kg/dose d14-17, 20-23 (total 14), day 24): +10 (24) % | Comments (toxicity level of the dose) [2, 5]: HNTD | lck Gross [2, 5]: 1.0 | CR (complete response) ([2]; Flavopiridol alone IV 2.9 mg/kg/dose d14-17, 20-23 (total 23.2), 2.9 mg/kg): 0/6 | CR (complete response) ([2]; Flavopiridol alone IV 2.9 mg/kg/dose d14-17, 20-23 (total 23.2), listed as Flavo, 2.9 mg/kg): no complete regression | % bwl (nadir) ([2]; Flavopiridol alone IV 2.9 mg/kg/dose d14-17, 20-23 (total 23.2), nadir day 18): 3 (18) % | % bwl (nadir) [2, 6]: >20% | Comments: DD [2, 6]: 4/5 DD | highest non-toxic total dose, component alone [2]: 23.2 mg/kg | lck (log10 cell kill) (MA13/C; Flavopiridol alone po 2.7 mg/kg days 14-18, 21-25 (total 27)): 0.1 | % bwl (nadir) (MA13/C; mouse, in vivo, po, 2.7 mg/kg): 11.6%

CC(=O)O[C@@]12CO[C@@H]1C[C@H](O)[C@@]1(C)C(=O)[C@H](O)C3=C(C)[C@@H](OC(=O)[C@H](O)[C@@H](NC(=O)OC(C)(C)C)c4ccccc4)C[C@@](O)([C@@H](OC(=O)c4ccccc4)[C@H]21)C3(C)C [Taxotere ®, docetaxel]
lck (log10 cell kill) ([1]; Taxotere alone IV 30.0 mg/kg days 15, 21 (total 60.0)): 4.7 | CR (complete response) ([1]; Taxotere alone IV 30.0 mg/kg days 15, 21 (total 60.0), 30 mg/kg): 5/5 CR | CR (complete response) ([1]; Taxotere alone IV 30.0 mg/kg days 15, 21 (total 60.0), listed as Taxotere®, 30 mg/kg): complete response in all 5 of the mice | % bwl (nadir) ([1]; 30 mg/kg): 8 (27) % | HNTD (DT), total dose [1]: (60.0) mg/kg | HNTD (highest non-toxic dose), per dose [1]: 30.0 mg/kg | CR (complete response) [2, 7]: 6/6 | Comments (toxicity level of the dose) [2, 7]: HNTD | lck Gross [2, 7]: 4.4 | % bwl (nadir) ([2]; Taxotere alone IV 48.1 mg/kg/dose d14, 23 (total 96.8), nadir day 28): 8 (28) % | Comments: DD ([2]; Taxotere alone IV 78.1 mg/kg/dose d14, 23 (total 156.2)): 2/6 DD | % bwl (nadir) ([2]; Taxotere alone IV 78.1 mg/kg/dose d14, 23 (total 156.2), nadir day 29): 20 (29) % | log cell kill net ([2]; docetaxel alone at HNTD 48.1 mg/kg/injection (total 96.8 mg/kg)): 3 | HNTD, per injection ([2]; docetaxel alone, days 14 and 23): 48.1 mg/kg/injection | highest non-toxic total dose, component alone [2]: 96.8 mg/kg | lck (log10 cell kill) (MA13/C; Taxotere alone IV 30 mg/kg days 14, 25 (total 60)): 0.9 | HNTD (DT), total dose (MA13/C; mouse, in vivo): (60) mg/kg | HNTD, per dose (MA13/C; mouse, in vivo): 30 mg/kg | % bwl (nadir) (MA13/C; mouse, in vivo, iv, 30 mg/kg): 3.6% | Comments (toxicity level of the dose) (MA13/C; mouse, in vivo, iv, 30 mg/kg): HNTD
